Data on ten compounds can be found in patent publication US10272087B2, “Pteridines as FGFR inhibitors” (ASTEX THERAPEUTICS LIMITED, priority 2012, dated 2019).

In assay [1] the target is KDR (h) (VEGFR2) (Homo sapiens (Human), UniProt P35968). In words: KDR (VEGFR2) (enzymatic assay), TR-FRET. It counts as biochemical. To be noted: 3 μM ATP; read-out: VEGFR KDR pIC50 (converted).
For assay [2], the system named is Ba/F3-FGFR1-transfected cells. The assay can be described thus: cells. To be noted: read-out: BAF3-FGFR1 (MIN IL3 pIC50) (converted).
For assay [3], the system named is Ba/F3-FGFR4-transfected cells. In words: cells. To be noted: read-out: BAF3-FGFR4 (pIC50) (converted).
The subject of assay [4] is Ba/F3-KDR-transfected cells. In words: cells. To be noted: read-out: BAF3-KDR (MIN IL3 pIC50) (converted).

KDR (h) (VEGFR2), sequence (P35968 20-1356): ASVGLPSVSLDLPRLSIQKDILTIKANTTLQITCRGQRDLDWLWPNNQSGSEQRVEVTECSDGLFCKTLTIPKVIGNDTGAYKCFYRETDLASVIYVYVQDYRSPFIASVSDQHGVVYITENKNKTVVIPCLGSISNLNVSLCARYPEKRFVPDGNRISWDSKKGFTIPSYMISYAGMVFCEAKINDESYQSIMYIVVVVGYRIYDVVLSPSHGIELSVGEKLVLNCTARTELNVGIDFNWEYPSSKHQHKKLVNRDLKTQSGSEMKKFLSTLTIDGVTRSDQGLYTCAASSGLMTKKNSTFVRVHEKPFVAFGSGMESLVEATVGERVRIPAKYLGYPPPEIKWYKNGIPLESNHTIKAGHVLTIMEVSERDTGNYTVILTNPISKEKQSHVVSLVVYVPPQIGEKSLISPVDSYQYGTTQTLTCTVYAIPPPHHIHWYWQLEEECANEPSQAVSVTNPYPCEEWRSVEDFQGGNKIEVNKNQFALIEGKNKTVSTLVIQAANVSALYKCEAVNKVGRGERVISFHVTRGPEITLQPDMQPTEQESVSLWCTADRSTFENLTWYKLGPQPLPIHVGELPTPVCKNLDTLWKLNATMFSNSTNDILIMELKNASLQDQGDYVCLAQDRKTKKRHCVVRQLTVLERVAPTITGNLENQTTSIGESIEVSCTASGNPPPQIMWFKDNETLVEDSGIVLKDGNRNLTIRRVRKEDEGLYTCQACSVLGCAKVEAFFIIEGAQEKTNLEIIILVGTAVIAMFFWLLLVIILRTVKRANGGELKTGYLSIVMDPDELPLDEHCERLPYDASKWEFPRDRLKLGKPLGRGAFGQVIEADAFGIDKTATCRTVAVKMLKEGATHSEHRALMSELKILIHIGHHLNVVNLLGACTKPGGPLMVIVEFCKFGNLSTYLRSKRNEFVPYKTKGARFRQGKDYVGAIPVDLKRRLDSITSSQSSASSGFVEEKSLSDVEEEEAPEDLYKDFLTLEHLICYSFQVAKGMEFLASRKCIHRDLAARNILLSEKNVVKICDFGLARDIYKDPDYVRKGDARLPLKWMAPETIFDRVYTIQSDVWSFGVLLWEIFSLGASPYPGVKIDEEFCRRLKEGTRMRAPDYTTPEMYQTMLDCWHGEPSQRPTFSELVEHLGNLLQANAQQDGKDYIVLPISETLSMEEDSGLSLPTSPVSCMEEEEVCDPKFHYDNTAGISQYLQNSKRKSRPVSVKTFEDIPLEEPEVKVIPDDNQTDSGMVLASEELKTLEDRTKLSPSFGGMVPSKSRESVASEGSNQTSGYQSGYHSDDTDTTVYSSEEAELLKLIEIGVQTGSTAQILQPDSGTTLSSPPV

Turning to `COc1cc(OC)c(F)c(N(Cc2nccn2S(=O)(=O)N(C)C)c2ncc3ncc(-c4cnn(C)c4)nc3n2)c1F` [Compound 1], in assay [1], the IC50 is 100 nM.

For `COc1cc(OC)c(F)c(N(Cc2ncc[nH]2)c2ncc3ncc(-c4cnn(C)c4)nc3n2)c1F` [Compound 2], the results for the IC50 in assay [1], in assay [2] and in assay [3] were 25.1 nM, 6.31 nM and 25.1 nM, respectively.

For the compound `COc1cc(OC)cc(N(CCO)c2ncc3ncc(-c4cnn(C)c4)nc3n2)c1` [Compound 3], the IC50 in assay [1] is above 1000 nM; in assay [4] it was above 10000 nM.

Consider `COc1cc(OC)cc(N(CCO)c2ncc3ncc(-c4ccccc4)nc3n2)c1` [Compound 4], for which, in assay [4], the IC50 is above 10000 nM.

Turning to `COc1cc(OC)cc(N(CC2CC2)c2ncc3ncc(-c4ccccc4)nc3n2)c1` [Compound 7], the IC50 in assay [1] was above 1000 nM; in assay [4], above 10000 nM.

On to `COc1cc(OC)c(F)c(N(C[C@@H]2CCC(=O)N2)c2ncc3ncc(-c4cnn(C)c4)nc3n2)c1F` [Compound 8], for which the IC50 in assay [1] was 794 nM; in assay [4], above 10000 nM.

Take `CNCCN(c1ncc2ncc(-c3cnn(C)c3)nc2n1)c1c(F)c(OC)cc(OC)c1F` [Compound 9]: the IC50 in assay [1] is 398 nM; in assay [4], 2510 nM.

With `COc1cc(OC)c(F)c(N(C[C@H]2CCC(=O)N2)c2ncc3ncc(-c4cnn(C)c4)nc3n2)c1` [Compound 10], the IC50 in assay [1] is 1000 nM.

In the case of `COc1cc(OC)c(F)c(N(C[C@@H]2CCC(=O)N2)c2ncc3ncc(-c4cnn(C)c4)nc3n2)c1` [Compound 11], the IC50 in assay [1] is above 1000 nM.

On to `COc1cc(OC)c(F)c(N(Cc2ncc[nH]2)c2ncc3ncc(-c4cnn(C)c4)nc3n2)c1` [Compound 13], for which the IC50 in assay [1] was 251 nM.
